Experimental data reported in paper PMC3265452 (PLoS Neglected Tropical Diseases, 2012).
Structures can show the parent of a compound that is named as a salt. Where two headings read alike, the source gives them in different places.

Molecular target: AaDOP2 (Aedes aegypti, UniProt H6D5H2)
Assay: AaDOP2 antagonist screen of the LOPAC1280 library (HEK-CRELuc-Aadop2 cells, luminescence)
Format: cell-based
[1] = 10 µM compound, 300 nM dopamine, 2 hr, hit = compound effect <20

Chain of AaDOP2 (H6D5H2 1-476): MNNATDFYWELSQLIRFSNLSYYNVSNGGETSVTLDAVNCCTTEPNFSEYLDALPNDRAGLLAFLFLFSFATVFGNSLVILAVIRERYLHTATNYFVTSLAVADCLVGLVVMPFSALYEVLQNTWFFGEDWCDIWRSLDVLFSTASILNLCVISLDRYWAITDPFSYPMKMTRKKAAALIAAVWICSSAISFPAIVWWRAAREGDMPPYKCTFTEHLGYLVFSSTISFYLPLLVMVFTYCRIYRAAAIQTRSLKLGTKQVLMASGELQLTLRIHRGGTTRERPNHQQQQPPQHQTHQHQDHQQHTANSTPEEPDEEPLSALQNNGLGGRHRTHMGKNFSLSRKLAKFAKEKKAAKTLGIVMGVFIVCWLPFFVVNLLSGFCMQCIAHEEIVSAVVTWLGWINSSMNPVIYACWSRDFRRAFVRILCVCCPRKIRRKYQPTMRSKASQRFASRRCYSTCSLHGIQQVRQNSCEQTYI

| Compound | Compound effect (percent receptor signaling in presence of test compound, relative lux units relative to the SCH23390 control) | further results |
| --- | --- | --- |
| CC1(C)C(=O)N(CCN2CCC(C(=O)c3ccc(F)cc3)CC2)c2ccccc21.Cl [Compound 698, LY-310,762 hydrochloride] |  | % of the SCH23390 effect (percent inhibition of receptor response relative to the SCH23390 control) (10 µM compound, 300 nM dopamine, 2 hr): 81%; Compound effect (percent receptor signaling in presence of test compound, relative lux units relative to the SCH23390 control) [1]: 19% |
| Cc1ccccc1N1CCN(S(=O)(=O)C[C@]23CC[C@H](C[C@@H]2NC(=O)[C@@H](N)CCS(C)(=O)=O)C3(C)C)CC1 [Compound 699, L-368,899] | 94 |  |
| CCn1cc(C(=O)O)c(=O)c2cc(F)c(N3CCNC(C)C3)c(F)c21 (centres unmarked) [Compound 700, Lomefloxacin hydrochloride] | 90 |  |
| Nc1nnc(-c2cccc(Cl)c2Cl)c(N)n1 [Compound 701, Lamotrigine] | 87 |  |
| CN1[C@@H](CC(=O)c2ccccc2)CCC[C@H]1C[C@H](O)c1ccccc1.Cl [Compound 702, alpha-Lobeline hydrochloride] | 89 |  |
| CN(C)C(=O)C(CCN1CCC(O)(c2ccc(Cl)cc2)CC1)(c1ccccc1)c1ccccc1 [Compound 703, Loperamide hydrochloride] | 83 |  |
| O=C(O)c1nn(Cc2ccc(Cl)cc2Cl)c2ccccc12 [Compound 704, Lonidamine] | 90 |  |
| Cc1oncc1C(=O)Nc1ccc(C(F)(F)F)cc1 [Compound 705, Leflunomide] | 97 |  |
| CN1CCc2ccccc2Cc2[nH]c3ccccc3c2CC1 [Compound 710, LE 300] | 1 | % of the SCH23390 effect (percent inhibition of receptor response relative to the SCH23390 control): 99% |
| Cc1c(OCC(F)(F)F)ccnc1C[S+]([O-])c1nc2ccccc2[nH]1 (centres unmarked) [Compound 711, Lansoprazole] | 91 |  |
| Cl.c1ccc(CN2CCC3(CCCc4ccccc43)CC2)cc1 [Compound 712, L-687,384 hydrochloride] | 87 |  |
| C/C(O)=C(\C#N)C(=O)Nc1cc(Br)ccc1Br [Compound 713, LFM-A13] | 98 |  |
| O=c1cc(-c2ccc(O)c(O)c2)oc2cc(O)cc(O)c12 [Compound 714, Luteolin] | 87 |  |
| Cc1c(CC(C)(C)C(=O)O)n(Cc2ccc(Cl)cc2)c2ccc(F)cc12 [Compound 715, L-655,240] | 73 |  |
| CCOC(=O)N1CCC(=C2c3ccc(Cl)cc3CCc3cccnc32)CC1 [Compound 716, Loratadine] | 88 |  |
| Cl.c1ccc([C@H]2CN3CCSC3=N2)cc1 [Compound 717, (-)-Tetramisole hydrochloride] | 90 |  |
| CCOC(=O)c1ncn2c1[C@@H]1CCCN1C(=O)c1cc(OC)ccc1-2 [Compound 718, L-655,708] | 90 |  |
| Cl.O=c1cc(N2CCOCC2)oc2c(-c3ccccc3)cccc12 [Compound 719, LY-294,002 hydrochloride] | 53 |  |
| CN1CCN(C2=Nc3ccccc3Oc3ccc(Cl)cc32)CC1 [Compound 720, Loxapine succinate] | 3 | inhibition at 10 µM (read-out: % of the SCH23390 effect (percent inhibition of receptor response relative to the SCH23390 control)): 97% |
| CC(O)C(C)OC(=O)[C@@H]1C[C@@H]2c3cccc4c3c(cn4C(C)C)C[C@H]2N(C)C1.O=C(O)/C=C\C(=O)O (some centres unmarked) [Compound 721, LY-53,857 maleate] |  | Compound effect (percent receptor signaling in presence of test compound, relative lux units relative to the SCH23390 control) [1]: 73% |
| CCCCCN(CCCCC)C(=O)C(CCC(=O)O)NC(=O)c1ccc(Cl)c(Cl)c1 (centres unmarked) [Compound 722, Lorglumide sodium] | 122 |  |
| CN1C2CCC1CC(NC(=O)c1nn(C)c3ccccc13)C2.O=C(O)/C=C\C(=O)O (centres unmarked) [Compound 723, LY-278,584 maleate] |  | Compound effect (percent receptor signaling in presence of test compound, relative lux units relative to the SCH23390 control) [1]: 92% |
| Ic1ccccc1CNC1C2CCN(CC2)C1C(c1ccccc1)c1ccccc1.O=C(O)C(=O)O [Compound 725, L-703,606 oxalate] | 98 |  |
| C=CCN1CC[C@]23CCCC[C@H]2[C@H]1Cc1ccc(O)cc13 [Compound 726, Levallorphan tartrate] | 93 |  |
| Cl.Clc1ccc(N2CCN(Cc3c[nH]c4ncccc34)CC2)cc1 [Compound 728, L-745,870 hydrochloride] | 111 |  |

| Compound | Compound effect (percent receptor signaling in presence of test compound, relative lux units relative to the SCH23390 control) | further results |
| --- | --- | --- |
| Cl.Cl.Cl.Ic1ccc(N2CCN(Cc3c[nH]c4ncccc34)CC2)cc1 [Compound 729, L-750,667 trihydrochloride] |  | Compound effect (percent receptor signaling in presence of test compound, relative lux units relative to the SCH23390 control) [1]: 107% |
| O=C1N(c2ccccc2)c2ccccc2C1(Cc1ccncc1)Cc1ccncc1 [Compound 730, Linopirdine] | 106 |  |
| OC1(c2ccc(Cl)cc2)CCN(Cc2c[nH]c3ccccc23)CC1 [Compound 731, L-741,626] | 104 |  |
| Cl.FC(F)(F)c1cc(CO[C@H]2CCCN[C@H]2c2ccccc2)cc(C(F)(F)F)c1 [Compound 732, L-733,060 hydrochloride] |  | Compound effect (percent receptor signaling in presence of test compound, relative lux units relative to the SCH23390 control) [1]: 94% |
| CCN(CC)CCNC(=O)c1cc(Cl)c(N)cc1OC.Cl [Compound 733, Metoclopramide hydrochloride] |  | Compound effect (percent receptor signaling in presence of test compound, relative lux units relative to the SCH23390 control) [1]: 101% |
| COc1cc(CNC(=O)CCCCCCC(C)C)ccc1O [Compound 735, Dihydrocapsaicin] | 102 |  |
| COc1ccc2cc([C@H](C)C(=O)[O-])ccc2c1.[Na+] [Compound 736, (-)-Naproxen sodium] |  | Compound effect (percent receptor signaling in presence of test compound, relative lux units relative to the SCH23390 control) [1]: 105% |
| Cc1cn[nH]c1.Cl [Compound 737, 4-Methylpyrazole hydrochloride] | 111 |  |
| COC(=O)Nc1nc2ccc(C(=O)c3cccs3)cc2[nH]1 [Compound 738, Nocodazole] | 89 |  |
| CNCCc1c[nH]c2ccc(O)cc12.O=C(O)C(=O)O [Compound 739, N-omega-Methyl-5-hydroxytryptamine oxalate salt] | 115 |  |
| COc1nc(C)nc(Cl)c1NC1=NCCN1.Cl [Compound 740, Moxonidine hydrochloride] |  | Compound effect (percent receptor signaling in presence of test compound, relative lux units relative to the SCH23390 control) [1]: 94% |
| C#CCN1C(C)=C(C(=O)OC)C(c2cccc([N+](=O)[O-])c2)C(C(=O)OCC)=C1C (centres unmarked) [Compound 741, MRS 1845] | 101 |  |
| CN1C[C@H](O)[C@@H](O)[C@H](O)[C@H]1CO [Compound 742, N-Methyl-1-deoxynojirimycin] |  | Compound effect (percent receptor signaling in presence of test compound, relative lux units relative to the SCH23390 control) [1]: 101% |
| CCCOC(=O)c1c(-c2ccccc2)nc(CC)c(C(=O)SCC)c1CCC [Compound 743, MRS 1523] | 101 |  |
| N[C@@H](Cc1ccc(N(CCCl)CCCl)cc1)C(=O)O [Compound 744, Melphalan] | 102 |  |
| COc1ccc2[nH]cc(CCN(C)C)c2c1.O=C(O)C(=O)O [Compound 745, 5-Methoxy DMT oxalate] | 104 |  |
| CC(C)NCC(O)c1cc(O)cc(O)c1.CC(C)NCC(O)c1cc(O)cc(O)c1.O=S(=O)(O)O (centres unmarked) [Compound 746, Metaproterenol hemisulfate] |  | Compound effect (percent receptor signaling in presence of test compound, relative lux units relative to the SCH23390 control) [1]: 111% |
| CC[C@H](C)C(=O)O[C@H]1CCC=C2C=C[C@H](C)[C@H](CC[C@@H]3C[C@@H](O)CC(=O)O3)[C@H]21 [Compound 748, Mevastatin] | 106 |  |
| COCc1nc2c([nH]1)c(=O)n(C)c(=O)n2CC(C)C [Compound 749, 8-Methoxymethyl-3-isobutyl-1-methylxanthine] | 107 |  |
| CC(C)c1ccc2c(c1)c(SC(C)(C)C)c(CC(C)(C)C(=O)O)n2Cc1ccc(Cl)cc1 [Compound 750, MK-886] | 65 |  |
| Cc1cccc(C)c1OCC(C)N.Cl (centres unmarked) [Compound 751, Mexiletene hydrochloride] |  | Compound effect (percent receptor signaling in presence of test compound, relative lux units relative to the SCH23390 control) [1]: 105% |
| CC[C@@H](CO)NC(=O)[C@@H]1C=C2c3cccc4[nH]cc(c34)C[C@H]2N(C)C1 [Compound 752, Methylergonovine maleate] | 107 |  |
| CCOC(=O)[N-]c1cn(N2CCOCC2)n[o+]1 [Compound 753, Molsidomine] | 98 |  |
| Cc1nnc2ccc(-c3cccc(C(F)(F)F)c3)nn12 [Compound 754, 3-Methyl-6-(3-[trifluoromethyl]phenyl)-1,2,4-triazolo[4,3-b]pyridazine] | 87 |  |
| NC(=O)c1ncn([C@@H]2O[C@H](CO)[C@@H](O)[C@H]2O)c1O [Compound 755, Mizoribine] | 94 |  |
